The test system of test [1] is skin keratinocyte cell line HaCaT. The experiment in a line: Resazurin assay, HaCaT proliferation and viability, Example 1 (24 hours of treatment). It is filed as cell-based. As to conditions: Homo sapiens, 25 μM alone, read-out: reduction of proliferation and viability of HaCaT cells. The procedure: (§1) The spontaneously immortalized, nontumorigenic skin keratinocyte cell line HaCaT was maintained in DMEM supplemented with 5% (v/v) FBS, 0.3 mg/ml glutamine and 0.1 mg/ml gentamicin at 37° C. with 5% CO2 in a humidified atmosphere. Subculture using trypsin-EDTA was performed every 3-4 days with split ratio of 1:3-1:4 to ensure actively proliferating cells.
Cells were seeded in 96 well plates in fully supplemented medium at a density of 2500 cells per well. Following 72 hours of cultivation, the cells were starved of serum in 0.25% FBS/DMEM overnight to halt proliferation, synchronize and to increase cell sensitivity to treatment. On day 4, the cells were treated with cPLA2α inhibitor Compound A1 and immunomodulator Pimecrolimus (Karebay Biochem # Ki0907) and left to incubate for […] in incubator at 37° C. with 5% CO2 in a humidified atmosphere before fluorescence was read at 544 nm excitation and 590 nm emission wavelength. The cells were observed under the microscope to evaluate possible morphology changes and signs of stress before addition of resazurin. The experiments were performed in series of 8 wells per treatment and repeated 2-3 times.
Background: Resazurin is reduced to fluorescent resorufin, in cell work by metabolically active cells.

Test [2] has the same test system. The test is described as follows: Resazurin assay, HaCaT cell viability, Example 2 (48 hours of treatment). It is filed as cell-based, human. The following applies: each alone, dose response over 48 hours. The procedure:
as §1
Cells were seeded in 96 well plates in fully supplemented medium at a density of 3000 cells per well. Following 72 hour of cultivation, the cells were starved of serum in 0.25% FBS/DMEM overnight to halt proliferation, synchronize the cells and to increase cell sensitivity to treatment. Next day, the cells were treated with Compound A1 and calcineurin inhibitor Pimecrolimus for 48 hours. Resazurin was added according to the manufacturer's instruction (RnD Systems, UK) and left to incubate for […] in incubator at 37° C. with 5% CO2 in a humidified atmosphere before fluorescence was read at 544 nm excitation and 590 nm emission wavelength. The cells were observed under the microscope to evaluate possible morphology changes and signs of stress before addition of resazurin. The experiments were performed in series of 8 wells per treatment.

On to `CC[C@@H]1/C=C(\C)C[C@H](C)C[C@H](OC)[C@H]2O[C@@](O)(C(=O)C(=O)N3CCCC[C@H]3C(=O)O[C@H](/C(C)=C/[C@@H]3CC[C@H](Cl)[C@H](OC)C3)[C@H](C)[C@@H](O)CC1=O)[C@H](C)C[C@@H]2OC` [Pimecrolimus], for which the cytotoxicity at 25 µM in test [1] is around 15%. In addition, the “activity against viability of the cells (dose response)” value in test [2] is on record as “active inhibitors”.

Source of the values: patent US20200323793A1, “COMBINATION THERAPY COMPRISING A POLYUNSATURATED KETONE AND A CALCINEURIN INHIBITOR” (Avexxin AS, priority 2016, published 2020).
